Assay results reported in PubChem BioAssay (NCI).
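Results reflect a 48-hour exposure of cells in 96-well plates to compound at five concentrations. At the GI50, growth is halved. TGI: total growth inhibition.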

What was measured:
Experiment in all cases: NCI-60 cell line screen, 48 h
SF-295 CNS = system: SF-295 CNS
HCT-15 colon = system: HCT-15 colon
SK-MEL-5 melanoma = system: SK-MEL-5 melanoma
EKVX NSCLC = system: EKVX NSCLC
SNB-19 CNS = system: SNB-19 CNS
A549 NSCLC = system: A549 NSCLC
OVCAR-5 ovarian = system: OVCAR-5 ovarian
SK-OV-3 ovarian = system: SK-OV-3 ovarian
MALME-3M melanoma = system: MALME-3M melanoma
MDA-N = system: MDA-N

Row | SMILES | TGI (SF-295 CNS) | TGI (HCT-15 colon) | TGI (SK-MEL-5 melanoma) | TGI (EKVX NSCLC) | TGI (SNB-19 CNS) | TGI (A549 NSCLC) | TGI (OVCAR-5 ovarian) | TGI (SK-OV-3 ovarian) | TGI (MALME-3M melanoma) | TGI (MDA-N) | GI50 (HCT-15 colon) | GI50 (A549 NSCLC) | GI50 (SK-MEL-5 melanoma) | GI50 (EKVX NSCLC) | GI50 (SNB-19 CNS) | GI50 (OVCAR-5 ovarian) | GI50 (SK-OV-3 ovarian) | GI50 (MALME-3M melanoma) | GI50 (SF-295 CNS)
1 | Cc1ccc2c(=O)cc(-c3ccc(Cl)s3)[nH]c2n1 | 4.85 µM | > 100 µM | 17.7 µM | > 100 µM | > 100 µM | > 29.3 µM | > 100 µM | 53.3 µM | > 100 µM |  |  |  |  |  |  |  |  |  | 
2 | Nc1ccc(S(=O)(=O)c2ccc(NCN3C(=O)NC(=O)C(=O)C3=O)cc2)cc1 | > 100 µM | > 100 µM | > 100 µM | > 100 µM | > 100 µM | > 100 µM | > 100 µM |  | > 100 µM | > 100 µM |  |  |  |  |  |  |  |  | 
3 | Cc1csc(NC23CC4CC(CC(C4)C2)C3)[n+]1C(P(=O)([O-])O)P(=O)(O)O (stereo not given) | > 100 µM | > 100 µM | > 100 µM | > 100 µM | > 100 µM | > 100 µM | > 100 µM | > 100 µM | > 100 µM | > 100 µM |  |  |  |  |  |  |  |  | 
4 | CC(=C(c1ccccc1)c1ccccc1)N1C(=O)CC(=O)N1C | > 100 µM |  | > 100 µM | > 100 µM | > 100 µM | > 100 µM | > 100 µM | > 100 µM |  | > 100 µM |  |  |  |  |  |  |  |  | 
5 | NS(=O)(=O)c1ccc(/C=C/c2ccc(F)cc2)cc1 | 78.6 µM | 33.3 µM |  | > 100 µM | > 100 µM | 37.1 µM | > 100 µM | 57.6 µM | > 100 µM | > 100 µM | 9.97 µM | 8.93 µM |  |  |  |  |  |  | 
6 | COc1cc2ccc(=O)oc2cc1O | 79.7 µM | > 625 µM | 302 µM | 226 µM | 432 µM | 320 µM | 514 µM | 509 µM | 489 µM |  |  |  |  |  |  |  |  |  | 
7 | CCNC(=S)N=Nc1c(O)[nH]c2ccc([N+](=O)[O-])cc12 | > 100 µM | > 100 µM | > 100 µM | > 100 µM | > 100 µM | > 100 µM | > 100 µM | > 100 µM | > 100 µM | > 100 µM |  |  |  |  |  |  |  |  | 
8 | O=c1cc(N2CCCC2)[nH]c(=O)n1Cc1ccccc1 | > 100 µM | > 100 µM | > 100 µM | > 100 µM | > 100 µM | > 100 µM | > 100 µM |  | > 100 µM |  |  |  |  |  |  |  |  |  | 
9 | CCOC(=O)CCC(NC(=O)OCc1ccccc1)C(=O)NC(CCC(=O)OCC)C(=O)NC(CCC(=O)OCC)C(=O)NC(CCC(=O)OCC)C(=O)NC(CCC(=O)OCC)C(=O)NC(CCC(=O)OCC)C(=O)NC(CCC(=O)OCC)C(=O)OCC (stereo not given) |  | > 100 µM | > 100 µM |  | > 100 µM | > 100 µM | > 100 µM |  | > 100 µM | > 100 µM |  |  |  |  |  |  |  |  | 
10 | COC(OC)[C@@H]1OC[C@H](n2cnc3c(N)ncnc32)[C@H]1O | > 100 µM | > 100 µM | > 100 µM | > 100 µM | > 100 µM | > 100 µM | > 100 µM | > 100 µM |  | > 100 µM |  |  |  |  |  |  |  |  | 
11 | CC(=O)N1CC(C)(C)c2c(C)c(O)c(C)c(C)c21 | > 100 µM | > 100 µM | > 100 µM | > 100 µM | > 100 µM | > 100 µM | > 100 µM | > 100 µM |  | > 100 µM |  |  |  |  |  |  |  |  | 
12 | O=C1C[C@@H](C(=O)OCc2ccccc2)NC(=O)C[C@@H](C(=O)OCc2ccccc2)NC(=O)C[C@@H](C(=O)OCc2ccccc2)N1 | > 100 µM | > 100 µM | > 100 µM | > 100 µM | > 100 µM | > 100 µM | > 100 µM | 97.1 µM |  | > 100 µM |  |  |  |  |  |  |  |  | 
13 | CC(NC(=O)C(NC(=O)CNC(=O)OC(C)(C)C)C(C)C)C(=O)Oc1c(Cl)c(Cl)c(Cl)c(Cl)c1Cl (stereo not given) | 34.3 µM | 33.2 µM | 33.9 µM | 83.8 µM | 96 µM | 57.5 µM | 31.6 µM | 51.5 µM | 49.4 µM | > 100 µM |  |  |  |  |  |  |  |  | 
14 | COc1c(O)c(C=O)c2c(O)c(-c3c(C)cc4c(C(C)C)c(OC)c(O)c(C=O)c4c3O)c(C)cc2c1C(C)C | 17 µM | 14 µM | 22.7 µM | 17.7 µM | 16.5 µM | 11.6 µM | 20.7 µM | 14.2 µM | 18.8 µM |  |  |  |  |  |  |  |  |  | 
15 | C=C/C(C)=C\CC1[C@](C)(O)CC[C@H]2C(C)(C)C(=O)CC[C@]12C (stereo not given in full) | > 100 µM | > 100 µM | > 100 µM | > 100 µM | > 100 µM | > 100 µM | > 100 µM |  | > 100 µM | > 100 µM |  |  |  |  |  |  |  |  | 
16 | CCNCCCn1c2c(c3ccc(Cl)cc3c1=O)C(=O)c1cc(OC)cnc1-2 |  | 2.5 µM | 2.49 µM | 2.78 µM | 2.66 µM | 2.31 µM | 3.31 µM | 1.94 µM | 3.12 µM |  | 1.02 µM | 0.459 µM | 0.813 µM | 0.859 µM | 0.585 µM | 1.48 µM | 0.475 µM | 1.37 µM | 
17 | Cc1cc(F)ccc1S(=O)(=O)Nc1cc(-c2c(O)ccc3ccccc23)c(O)c2ccccc12 | 10.3 µM | 11.4 µM | 3.52 µM | 7.45 µM |  | 15.5 µM | 17.4 µM | 11.6 µM | 12.1 µM |  | 2.68 µM | 3.76 µM | 1.77 µM | 1.93 µM |  | 4.55 µM | 2.37 µM | 3.27 µM | 3.02 µM
18 | COc1ccc(C2=Nc3cc(C)c(C)cc3NC(c3ccccc3)C2)cc1 (stereo not given) | > 100 µM | > 100 µM | > 100 µM | > 100 µM | > 100 µM | > 100 µM | > 100 µM | > 100 µM | > 100 µM |  |  |  |  |  |  |  |  |  | 
19 | CO/N=C1\CC(NC(=O)CNC(=O)OC(C)(C)C)c2ccsc21 (stereo not given) | > 100 µM | > 100 µM | > 100 µM | > 100 µM |  | > 100 µM | > 100 µM | > 100 µM | > 100 µM | > 100 µM |  |  |  |  |  |  |  |  | 
20 | CC(C)=NN/C(=N\S(=O)(=O)c1ccc(Oc2cccc(Cl)c2C#N)cc1)Nc1ccc(Cl)cc1 | > 100 µM | > 100 µM | > 100 µM | > 100 µM | > 100 µM | > 100 µM | > 100 µM |  | > 100 µM | > 100 µM |  |  |  |  |  |  |  |  | 
